Literature values, collected in US20050020589A1, “Sustained-release tablet composition comprising a dopamine receptor agonist” (Pfizer Inc., priority 2003, published 2005).

Solubility: highly soluble
Substance: (R)-5,6-dihydro-5-(methylarnino)-4H-imidazo[4,5-ij]-quinolin-2(1H)-one (Z)-2-butenedioate (1:1) [maleate salt of sumanirole]
